Measurements reported in patent US20220264924A1, “METHODS AND COMPOSITIONS FOR IMPROVED TASTE QUALITY” (ALMENDRA PTE LTD, priority 2019, published 2022).
Several values for one entry are separate records, joined by “and”; a condition that tells them apart may be missing. Equal entries are not always repeated.

Key:
[1] = tested on: human subject (sensory testing); conditions: cited from earlier work; for sweetness potency, times higher than sucrose: relative to sucrose (Tanaka 1987; Phillips 1989); for sweetness potency, times more potent than sucrose: sensory evaluations, relative to sucrose (Crammer and Ikan 1986)
[2] = tested on: human subject (sensory testing); assay: Sensory test: taste modulator effect on mouthfeel with MSG, varied MgCl2/CaCl2 (Example 4); format: in vivo; conditions: 0-15 scale, 12 mM MSG Stock Solution
Method: (§1) Representative formulations within the scope of the disclosed formulations were prepared and subjected to sensory testing by the methods described above in the section entitled Testing Methodology, where formulations were rated on a 0-15 scales for the Taste Attributes: Umami Intensity (UI), Saltiness Intensity (SaI), Sourness Intensity (SoI), Bitterness Intensity (BI), Astringency Intensity (AI), and Mouthfeel Intensity (MF). In sensory test sessions, the number of samples evaluated was limited to four. In the initial phase of formulation screening, testing was carried out in triplicate with a single subject extensively experienced in the technique of flavor profile analysis.
(§2) The sensory protocol was as follows: • 1. Scramble ambient temperature samples so that each test solution is an unknown sample for sensory testing. • 2. Rinse mouth with 15 mL water while swishing vigorously followed by expectoration. • 3. Take 15 mL of the sample into the mouth and swish around vigorously for 15 sec scaling Umami Intensity (U), Sourness Intensity (So), Saltiness Intensity (Sa), Bitterness Intensity (B), Mouthfeel Intensity (MF) and Astringency Intensity (A) on 0-15 scales during this period and recording them in a table. • 4. Expectorate sample, rinse mouth vigorously with 15 mL water and expectorate at 15 sec. • 5. Note any change in sensory perceptions over the next 2 min and record observations in a table. • 6. Rinse mouth with 15 mL water with vigorous agitation in the mouth for 15 sec and expectorate. • 7. Wait a minimum of 15 min and repeat with next sample. • 8. Break sample code to identify samples.
(§3) This study assessed the effects of a disclosed taste modulation formulation on umami taste and other sensory perceptions as described above for the test method, i.e., Umami Intensity (UI), Sourness Intensity (SoI), Saltiness Intensity (SaI), Bitterness Intensity (BI), Mouthfeel Intensity (MF) and Astringency Intensity (AI).
The sensory protocol was as described above in Example 2.
Briefly, a MSG Stock Solution of 12 mM MSG ([…]) was prepared and 100 mL portions of it were added to four 250 mL plastic-capped glass bottles. Sample preparation was completed as follows:
Eight independent trials were carried out and the average results are summarized below in Table 3.

[3] = tested on: human subject (sensory testing); assay: Sensory test: taste modulator effect on umami taste of MSG (Example 2); format: in vivo; conditions: 0-15 scale; average of three trials; MSG 12 mM
Method: as §1
as §3, with “effect” for “effects”
as §2
Briefly, a stock solution of 10 mM KCl (746 mg/L)/3 mM MgCl2.6H2O (610 mg/L)/3 mM CaCl2 (333 mg/L) in 1.00 L water was prepared in a 1 L E-flask, stirring to full dissolution. 100 mL portions of the mineral salt solution were then transferred to two 250 mL plastic-capped glass bottles and 100 mL portions of water were added to the other two 250 mL plastic-capped glass bottles. Sample completion was carried out by addition of MSG as follows for Sample Nos. 1-4.
Three independent trials were carried out and the data are summarized below in Table 1, with individual results from each trial and average of the three trials as indicated.

[4] = tested on: human subject (sensory testing); assay: Sweetness Linger of standards in the sensory testing methodology; format: in vivo; conditions: perceived sweetness intensity @ 120 sec; standards in water: 10% Sucrose, 500 PPM REBA
Excerpt: In various aspects, the present disclosure pertains to methods of testing the disclosed sweetener compositions, e.g., a sensory methodology or method for sweetener evaluation. In a particular aspect, the sensory methodology used is known as a “Flavor Profile Analysis” as has been previously described (see: B. T. Carr, S. D. Pecore, K. M. Gibes and G. E. DuBois, “Sensory Methods for Sweetener Evaluation”, Chapter 11 In Flavor Measurement, C. T. Ho and C. H. Manley, Eds., Marcel Dekker, New York, N.Y., 1993). The full set of sensory parameters that are assessed in the sensory testing method are: (a) Sweetness Intensity (which can be abbreviated in tables herein as “S”); (b) Sourness Intensity ((which can be abbreviated in tables herein as “So”); (c) Saltiness Intensity (which can be abbreviated in tables herein as “Sa”); (d) Bitterness Intensity (which can be abbreviated in tables herein as “B”); (e) Body/Mouthfeel Intensity (which can be abbreviated in tables herein as “B/MF”); (f) Astringency Intensity (which can be abbreviated in tables herein as “A”); (g) Sweetness Linger (which can be abbreviated in tables herein as “SL”); (h) Sweetness Appearance Time (which can be abbreviated in tables herein as “AT”); and (i) Sweetness Desensitization (which can be abbreviated in tables herein as “SD”). […]

[5] = tested on: human subject (sensory testing); conditions: R in Sucrose Equivalents of Sweetness; C in % (w/v); linear fit; cited from earlier work
[6] = water (Kinghorn 2002); cited from earlier work

## C=C1C[C@@]23CC[C@H]4[C@@](C)(CCC[C@@]4(C)C(=O)O[C@@H]4O[C@H](CO)[C@@H](O)[C@H](O)[C@H]4O)[C@@H]2CC[C@]1(O[C@@H]1O[C@H](CO)[C@@H](O)[C@H](O)[C@H]1O[C@@H]1O[C@@H](C)[C@H](O)[C@@H](O)[C@H]1O)C3 [Dulcoside A]
[1]
  sweetness potency, times higher than sucrose: 30 times

## N[C@@H](CCC(=O)[O-])C(=O)O.O.[Na+] [MSG Control 1, MSG-H2O]
[2]; average of eight trials
  AI (Astringency Intensity): 0.0
  BI (Bitterness Intensity): 0.0
  MF (Mouthfeel Intensity): 1.5
  Sal (Saltiness Intensity): 2.0
  Sol (Sourness Intensity): 0.0
  UI (Umami Intensity): 5.0
[2]; mean of eight trials
  MF rating, Mean: 1.50
[2]; trials 1-8
  MF rating, individual trials: 1 (4×) and 2 (4×)
[3]
  AI (Astringency Intensity) Ave: 0.0
  BI (Bitterness Intensity) Ave: 3.0
  MF (Mouthfeel Intensity) Ave: 3.3
  Sal (Saltiness Intensity) Ave: 2.0
  Sol (Sourness Intensity) Ave: 0.0
  UI (Umami Intensity) Ave: 4.7

## N[C@@H](CCC(=O)[O-])C(=O)O.O.[Na+] [MSG Control 2, MSG-H2O]
[3]
  AI (Astringency Intensity) Ave: 0.0
  BI (Bitterness Intensity) Ave: 3.0
  MF (Mouthfeel Intensity) Ave: 3.0
  Sal (Saltiness Intensity) Ave: 2.0
  Sol (Sourness Intensity) Ave: 0.0
  UI (Umami Intensity) Ave: 4.7

## C=C1C[C@@]23CC[C@H]4[C@@](C)(CCC[C@@]4(C)C(=O)O[C@@H]4O[C@H](CO)[C@@H](O)[C@H](O)[C@H]4O)[C@@H]2CC[C@]1(O[C@@H]1O[C@H](CO)[C@@H](O)[C@H](O[C@@H]2O[C@H](CO)[C@@H](O)[C@H](O)[C@H]2O)[C@H]1O[C@@H]1O[C@H](CO)[C@@H](O)[C@H](O)[C@H]1O)C3 [Rebaudioside A]
[4]
  SL (Sweetness Linger): 5
[1]
  sweetness potency, times more potent than sucrose: 350-450 times

## C=C1C[C@@]23CC[C@H]4[C@@](C)(CCC[C@@]4(C)C(=O)O[C@@H]4O[C@H](CO)[C@@H](O)[C@H](O)[C@H]4O)[C@@H]2CC[C@]1(O[C@@H]1O[C@H](CO)[C@@H](O)[C@H](O)[C@H]1O[C@@H]1O[C@H](CO)[C@@H](O)[C@H](O)[C@H]1O)C3 [Stevioside]
[1]
  sweetness potency, times higher than sucrose: 110-270 times

## OC[C@H]1O[C@@](CO)(O[C@H]2O[C@H](CO)[C@@H](O)[C@H](O)[C@H]2O)[C@@H](O)[C@@H]1O [Sucrose]
[5]
  C/R Function: R = C
[4]
  SL (Sweetness Linger): 0

## C[C@H](CC[C@@H](O[C@@H]1O[C@H](CO[C@@H]2O[C@H](CO)[C@@H](O)[C@H](O)[C@H]2O)[C@@H](O)[C@H](O)[C@H]1O[C@@H]1O[C@H](CO)[C@@H](O)[C@H](O)[C@H]1O)C(C)(C)O)[C@H]1CC[C@@]2(C)[C@@H]3CC=C4[C@@H](CC[C@H](O[C@@H]5O[C@H](CO[C@@H]6O[C@H](CO)[C@@H](O)[C@H](O)[C@H]6O)[C@@H](O)[C@H](O)[C@H]5O)C4(C)C)[C@]3(C)[C@H](O)C[C@]12C [mogroside V]
[1]; relative to cane sugar on a weight basis, estimated
  sweetness, times cane sugar: approximately 250 times

## Rebaudioside B [REBB]
[1]
  sweetness potency, times more potent than sucrose: 300-350 times
[6]
  water solubility: about 0.1%

## Rebaudioside C
[1]
  sweetness potency, times higher than sucrose: 40-60 times
